Measured values as given in PubChem BioAssay (NCI).
Several values for one entry are separate records, joined by “and”; a condition that tells them apart may be missing. Equal values may be shown once.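 Each compound was tested at five concentrations against cells in 96-well plates for 48 hours. Here, GI50 denotes the concentration required for 50% inhibition of growth. TGI: concentration producing complete growth inhibition.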

tested on: A549 NSCLC; assay: DTP human tumour cell line panel, 48 h

SMILES | TGI
COc1ccc(-c2cc(=O)c3c(OC)c(OC)c(OC)cc3o2)cc1 | 85.9 µM

tested on: OVCAR-8 ovarian; assay: DTP human tumour cell line panel, 48 h

SMILES | TGI | GI50
NC(CCC(=O)NC(CSSCCCCS(=O)O)C(=O)NCC(=O)O)C(=O)O (stereo not given) | > 100 µM | –
COC12C=C(C)C(CC1)CC2C(=O)O (stereo not given) | > 100 µM | –
OCC(O)CC[CH2][Sn]([Br])([c]1ccccc1)[c]1ccccc1 (stereo not given) | > 100 µM | > 100 µM
CCc1ccc(/C=C\c2cc(OC)c(OC)c(OC)c2)cc1 | 0.581 µM | –
O=c1c2cc([N+](=O)[O-])ccc2sc2ccsc12 | > 100 µM | –
COc1ccc(C2=CC3CCC2C3)cc1 (stereo not given) | > 100 µM | –
COc1ccc(/C=C/CN(C)CCc2ccccc2)cc1OC | > 100 µM | –
[Cl-].[Dy+3].[O-]/N=C(\c1ccccc1)c1ccccn1.[O-]/N=C(\c1ccccc1)c1ccccn1.[O-]/N=C(\c1ccccc1)c1ccccn1 | > 100 µM | 35.8 µM
NC(=O)C(=O)N/N=C(\CC1(O)C(=O)Nc2ccccc21)c1ccc2ccccc2c1 (stereo not given) | > 100 µM | –
Cc1cc2c(cc1C)[n+](=O)c(C(=O)C/C(=N/NC(=O)CC#N)C(=O)Nc1ccccc1C(F)(F)F)c(C)n2[O-] | > 100 µM | –
FC(F)(F)c1cccc(Nc2nccc(-c3cnn4nc(-c5ccccc5)ccc34)n2)c1 | > 18.4 µM | 6.54 µM
CC[C@@H]1C(=O)N(C)c2cnc(Nc3ccc(C(=O)NC4CCN(C)CC4)cc3OC)nc2N1C1CCCC1 | > 10 µM | 0.00414 µM
C=C1C(=O)O[C@H]2[C@H]1CC/C(COC(=O)c1ccc3ccccc3c1)=C\CC[C@@]1(C)O[C@@H]21 | 2.56 µM | 1.1 µM
O=C(c1ccccc1)c1nnc(C(=O)c2ccccc2)nn1 | > 344 µM | –
Brc1cccc(C=NC23CC4CC(CC(C4)C2)C3)c1 | > 100 µM | –
CC(C)c1nc(CN(C)C(=O)N[C@H](C(=O)N[C@@H](Cc2ccccc2)C[C@H](O)[C@H](Cc2ccccc2)NC(=O)OCc2cncs2)C(C)C)cs1 | > 100 µM | 36.3 µM
CCC[CH2][Sn]([CH2]CCC)([O]C(=O)c1cccnc1SC)[O]C(=O)c1cccnc1SC | 2.78 µM | 1.3 µM
Oc1ccc(CN2CCC(N3CCCCC3)CC2)c2cccnc12 | > 100 µM | 7.69 µM

SMILES | TGI | GI50
CC[C@@]1(O)C(=O)OCc2c1cc1n(c2=O)Cc2c-1nc1cc3c(cc1c2CCl)OCO3 | 0.602 µM | < 0.01 µM
CC1(C)OC2[C@@H](CNC(=O)NC(=O)NC(=O)CI)O[C@@H](n3cnc4c(NC(=O)Nc5ccccc5)ncnc43)[C@H]2O1 (stereo not given in full) | 22.7 µM | 9.45 µM
COc1cc(C2=C(c3ccccc3)COC2=O)cc(OC)c1OC | > 51.4 µM | 5.04 µM
COc1cc(C2NC(=O)c3ccccc3N2)ccc1OCCCCCOc1c(OC)cc(C2=NOC(c3cc(OC)c(OC)c(OC)c3)C2)cc1OC (stereo not given) | > 100 µM | 25.2 µM
O=C1Nc2c(C(F)(F)F)cccc2[C@]1(c1ccc(O)cc1)c1ccc(OC(F)(F)F)cc1 | 21.8 µM | 5.29 µM
O=C1O[C@@H](c2ccc3c(c2)OCO3)C2C(=O)O[C@@H](c3ccc4c(c3)OCO4)C12 (stereo not given in full) | > 100 µM | –
O=C1CCC(=O)N2CCCCN12 | > 100 µM | –
CC(C)C(=O)NC(=S)Nc1ccc([N+](=O)[O-])cc1C#N | > 100 µM | –
C/C(CC(=O)Nc1cc(Cl)c(Cl)cc1Cl)=N\NC(N)=O | > 100 µM | –
CC(=O)OC[C@]1(C)C=C2C(=O)[C@](C)(O)C3(CC3)C(C)=C2[C@H]1O | 4.51 µM | 0.177 µM
Oc1ccc(NCc2nc3ccccc3[nH]2)cc1 | > 100 µM | 26.8 µM
O=C(O)CNS(=O)(=O)c1ccc(NCc2ccccc2)cc1 | > 100 µM | –
O=C1c2cc(Cl)ccc2S(=O)(=O)c2c(NCCCNCCO)nc3ccccc3c21 | 4.53 µM | 1.86 µM
CC[C@@H]1CN(C)[C@H]2Cc3c([nH]c4ccccc34)C(=O)C[C@H]1C2C(=O)OC (stereo not given in full) | > 100 µM | –
COc1ccc(/C=C/c2nccc3ccccc23)cc1OC | > 10 µM | –
O=C1CCC2(c3ccc(F)cc3)Nc3cc(Cl)ccc3N12 (stereo not given) | > 100 µM | –
O=c1[nH]ncc(Br)c1Br | 10.8 µM | 2.86 µM
COc1ccc(-c2cc(=O)c3c(OC)c(OC)c(OC)cc3o2)cc1 | > 100 µM | –

tested on: HL-60(TB) leukemia; assay: DTP human tumour cell line panel, 48 h

SMILES | TGI | GI50
COC(=O)c1c/c(=N\NC(=O)CC(=O)Nc2ccccc2OC)c2ccccc2o1 | > 100 µM | –
COC12C=C(C)C(CC1)CC2C(=O)O (stereo not given) | > 100 µM | –
OCC(O)CC[CH2][Sn]([Br])([c]1ccccc1)[c]1ccccc1 (stereo not given) | > 100 µM | 52 µM
CCc1ccc(/C=C\c2cc(OC)c(OC)c(OC)c2)cc1 | – | 0.0172 µM
O=c1c2cc([N+](=O)[O-])ccc2sc2ccsc12 | > 100 µM | –
COc1ccc(C2=CC3CCC2C3)cc1 (stereo not given) | > 100 µM | –
[Cl-].[Dy+3].[O-]/N=C(\c1ccccc1)c1ccccn1.[O-]/N=C(\c1ccccc1)c1ccccn1.[O-]/N=C(\c1ccccc1)c1ccccn1 | 58.4 µM | 18.4 µM
NC(=O)C(=O)N/N=C(\CC1(O)C(=O)Nc2ccccc21)c1ccc2ccccc2c1 (stereo not given) | 36.5 µM | –
Cc1cc2c(cc1C)[n+](=O)c(C(=O)C/C(=N/NC(=O)CC#N)C(=O)Nc1ccccc1C(F)(F)F)c(C)n2[O-] | 86 µM | –
COC(=O)/C(=N/NC(=O)C[N+](C)(C)C)C(C(=O)OC)C(=O)C(=O)Nc1ccc(F)cc1 (stereo not given) | > 100 µM | –
FC(F)(F)c1cccc(Nc2nccc(-c3cnn4nc(-c5ccccc5)ccc34)n2)c1 | > 25 µM | > 25 µM
CC[C@@H]1C(=O)N(C)c2cnc(Nc3ccc(C(=O)NC4CCN(C)CC4)cc3OC)nc2N1C1CCCC1 | 0.00631 µM and 0.0445 µM | 0.00231 µM and < 0.01 µM
C=C1C(=O)O[C@H]2[C@H]1CC/C(COC(=O)c1ccc3ccccc3c1)=C\CC[C@@]1(C)O[C@@H]21 | 3.83 µM | 0.849 µM
O=C(c1ccccc1)c1nnc(C(=O)c2ccccc2)nn1 | > 344 µM | –
Brc1cccc(C=NC23CC4CC(CC(C4)C2)C3)c1 | > 100 µM | –
CC(C)c1nc(CN(C)C(=O)N[C@H](C(=O)N[C@@H](Cc2ccccc2)C[C@H](O)[C@H](Cc2ccccc2)NC(=O)OCc2cncs2)C(C)C)cs1 | 36.9 µM | 12.2 µM
CCC[CH2][Sn]([CH2]CCC)([O]C(=O)c1cccnc1SC)[O]C(=O)c1cccnc1SC | 1.05 µM | 0.16 µM
Oc1ccc(CN2CCC(N3CCCCC3)CC2)c2cccnc12 | 46.7 µM | 6.86 µM

SMILES | TGI | GI50
CC[C@@]1(O)C(=O)OCc2c1cc1n(c2=O)Cc2c-1nc1cc3c(cc1c2CCl)OCO3 | – | < 0.01 µM
CC1(C)OC2[C@@H](CNC(=O)NC(=O)NC(=O)CI)O[C@@H](n3cnc4c(NC(=O)Nc5ccccc5)ncnc43)[C@H]2O1 (stereo not given in full) | 4.13 µM | 1.61 µM
COc1cc(C2=C(c3ccccc3)COC2=O)cc(OC)c1OC | 2.14 µM | 0.409 µM
COc1cc(C2NC(=O)c3ccccc3N2)ccc1OCCCCCOc1c(OC)cc(C2=NOC(c3cc(OC)c(OC)c(OC)c3)C2)cc1OC (stereo not given) | > 53.9 µM | 11.7 µM
O=C1Nc2c(C(F)(F)F)cccc2[C@]1(c1ccc(O)cc1)c1ccc(OC(F)(F)F)cc1 | 32.5 µM | 13.7 µM
O=C1O[C@@H](c2ccc3c(c2)OCO3)C2C(=O)O[C@@H](c3ccc4c(c3)OCO4)C12 (stereo not given in full) | > 100 µM | –
O=C1CCC(=O)N2CCCCN12 | > 100 µM | –
CC(C)C(=O)NC(=S)Nc1ccc([N+](=O)[O-])cc1C#N | > 100 µM | –
C/C(CC(=O)Nc1cc(Cl)c(Cl)cc1Cl)=N\NC(N)=O | > 100 µM | –
CC(=O)OC[C@]1(C)C=C2C(=O)[C@](C)(O)C3(CC3)C(C)=C2[C@H]1O | 0.852 µM | 0.0861 µM
Oc1ccc(NCc2nc3ccccc3[nH]2)cc1 | > 100 µM | > 100 µM
O=C1c2cc(Cl)ccc2S(=O)(=O)c2c(NCCCNCCO)nc3ccccc3c21 | 6.79 µM | 2.1 µM
CC[C@@H]1CN(C)[C@H]2Cc3c([nH]c4ccccc34)C(=O)C[C@H]1C2C(=O)OC (stereo not given in full) | > 100 µM | –
COc1ccc(/C=C/c2nccc3ccccc23)cc1OC | > 10 µM | –
O=C1CCC2(c3ccc(F)cc3)Nc3cc(Cl)ccc3N12 (stereo not given) | > 100 µM | –
O=c1[nH]ncc(Br)c1Br | 4.27 µM | 2.22 µM
COc1ccc(-c2cc(=O)c3c(OC)c(OC)c(OC)cc3o2)cc1 | > 100 µM | –
